Assay results reported in patent publication US20200399222A1, “PICOLINAMIDES AS FUNGICIDES” (Dow AgroSciences LLC, priority 2018, published 2020).
Where two headings read alike, the source gives them in different places.

Experiments:
Format in all cases: in vivo
Phakopsora pachyrhizi = test: Asian soybean rust (PHAKPA) disease control on soybean seedlings; conditions: Phakopsora pachyrhizi, High volume application at 25 ppm
Experimental: Example C: Evaluation of Fungicidal Activity: Asian Soybean Rust (Phakopsora pachyrhizi; Bayer Code […]) Technical grades of materials were dissolved in acetone, which were then mixed with nine volumes of water containing 0.011% Tween 20. The fungicide solutions were applied onto soybean seedlings using an automated booth sprayer to run-off. All sprayed plants were allowed to air dry prior to further handling. Soybean plants (variety Williams 82) were grown in soil-less Metro mix, with one plant per pot. Two week old seedlings were used for testing. Plants were inoculated either 3 days prior to or 1 day after fungicide treatments. Plants were incubated for 24 h in a dark dew room at 22° C. and 100% relative humidity then transferred to a growth room at 23° C. for disease to develop. Disease severity was assessed on the sprayed leaves.

Puccinia triticina = test: Wheat brown rust (PUCCRT) disease control on wheat seedlings; conditions: High volume application, 100 ppm
Experimental: Technical grades of materials were dissolved in acetone, which were then mixed with nine volumes of water containing 110 ppm Triton X-100. The fungicide solutions were applied onto wheat seedlings using an automated booth sprayer to run-off. All sprayed plants were allowed to air dry prior to further handling. All fungicides were evaluated using the aforementioned method for their activity vs. all target diseases, unless stated otherwise. Wheat leaf blotch and brown rust activity were also evaluated using track spray applications, in which case the fungicides were formulated as EC formulations, containing 0.1% Trycol 5941 in the spray solutions. Example B: Evaluation of Fungicidal Activity: Wheat Brown Rust (Puccinia triticina; Synonym: Puccinia recondita f. sp. tritici; Bayer Code PUCCRT) Wheat plants (variety Yuma) were grown from seed in a greenhouse in 50% mineral soil/50% soil-less Metro mix until the first leaf was fully emerged, with 7-10 seedlings per pot. These plants were inoculated with an aqueous spore suspension of Puccinia triticina either prior to or after fungicide treatments. After inoculation the plants were kept in a dark dew room at 22° C. with 100% relative humidity overnight to permit spores to germinate and infect the leaf. The plants were then transferred to a greenhouse set at 24° C. for disease to develop. Fungicide formulation, application and disease assessment followed the procedures as described in the Example A.

Zymoseptoria tritici = test: Leaf blotch of wheat (SEPTTR) disease control on wheat seedlings; conditions: High volume application, 100 ppm
Experimental: Example A: Evaluation of Fungicidal Activity: Leaf Blotch of Wheat (Zymoseptoria tritici; Bayer Code […]) Technical grades of materials were dissolved in acetone, which were then mixed with nine volumes of water containing 110 ppm Triton X-100. The fungicide solutions were applied onto wheat seedlings using an automated booth sprayer to run-off. All sprayed plants were allowed to air dry prior to further handling. All fungicides were evaluated using the aforementioned method for their activity vs. all target diseases, unless stated otherwise. Wheat leaf blotch and brown rust activity were also evaluated using track spray applications, in which case the fungicides were formulated as EC formulations, containing 0.1% Trycol 5941 in the spray solutions. Wheat plants (variety Yuma) were grown from seed in a greenhouse in 50% mineral soil/50% soil-less Metro mix until the first leaf was fully emerged, with 7-10 seedlings per pot. These plants were inoculated with an aqueous spore suspension of Zymoseptoria tritici either prior to or after fungicide treatments. After inoculation the plants were kept in 100% relative humidity (one day in a dark dew chamber followed by two to three days in a lighted dew chamber at 20° C.) to permit spores to germinate and infect the leaf. The plants were then transferred to a greenhouse set at 20° C. for disease to develop. When disease symptoms were fully expressed on the 1st leaves of untreated plants, infection levels were assessed on a scale of 0 to 100 percent disease severity. Percent disease control was calculated using the ratio of disease severity on treated plants relative to untreated plants.

[1] = 24 h, 1 Day Protectant, read-out: PUCCRT disease control rating, 1DP
[2] = 72 h, 3 Day Curative, read-out: PUCCRT disease control rating, 3DC
[3] = 24 h, 1 Day Protectant, read-out: SEPTTR disease control rating, 1DP
[4] = 72 h, 3 Day Curative, read-out: SEPTTR disease control rating, 3DC

Row | SMILES | pest or weed control at 25 ppm (Phakopsora pachyrhizi; 24 h, 1 day protectant, read-out: PHAKPA 1DP (1 Day Protectant) disease control) [%] | pest or weed control at 25 ppm (Phakopsora pachyrhizi; 72 h, 3 day curative, read-out: PHAKPA 3DC (3 Day Curative) disease control) [%] | pest or weed control at 100 ppm (Puccinia triticina; [1]) [%] | pest or weed control at 100 ppm (Puccinia triticina; [2]) [%] | pest or weed control at 100 ppm (Zymoseptoria tritici; [3]) [%] | pest or weed control at 100 ppm (Zymoseptoria tritici; [4]) [%]
1 | COc1ccc([C@@H](C)[C@@H](C)OC(=O)[C@H](C)NC(=O)c2nccc(OC)c2OC(C)=O)c(C)c1 [Example 183] | > 80 | < 80 | – | – | – | –
2 | COc1ccnc(C(=O)N[C@@H](C)C(=O)O[C@H](C)[C@H](C)c2ccc(F)cc2)c1O [Example 136] | – | – | > 80 | < 80 | < 80 | < 80
3 | COc1ccnc(C(=O)N[C@H](C)C(=O)O[C@@H](C)[C@H](C)c2ccc(F)cc2C)c1O [Example 149] | – | – | < 0 | < 0 | < 80 | < 80
4 | COc1ccnc(C(=O)NCC(=O)O[C@H](C)[C@@H](C)c2ccccc2C)c1O [Example 125] | – | – | < 80 | < 0 | < 0 | < 80
5 | COc1ccnc(C(=O)NCC(=O)O[C@H](C)[C@H](C)c2ccc(F)cc2C)c1O [Example 123] | – | – | > 80 | < 80 | < 0 | < 80
6 | COc1ccnc(C(=O)N[C@H](C(=O)O[C@H](C)[C@H](C)c2ccc(F)cc2)C(C)C)c1O [Example 146] | – | – | > 80 | < 80 | > 80 | < 80
7 | COc1ccnc(C(=O)N[C@@H](C)C(=O)OC(C)C(C)c2c(C)cccc2C)c1O (stereo partly drawn) [Example 164] | – | – | > 80 | > 80 | < 80 | > 80
8 | COc1ccnc(C(=O)N[C@H](C(=O)O[C@H](C)[C@H](C)c2ccc(F)cc2C)C(C)C)c1O [Example 143] | – | – | > 80 | < 0 | < 80 | < 80
9 | COc1ccc([C@H](C)[C@H](C)OC(=O)[C@@H](NC(=O)c2nccc(OC)c2O)C(C)C)c(C)c1 [Example 142] | – | – | > 80 | > 80 | > 80 | < 80
10 | COc1ccnc(C(=O)N[C@@H](C)C(=O)O[C@H](C)[C@H](C)C2CCCC2)c1O [Example 163] | – | – | < 80 | < 80 | < 80 | < 80
11 | COc1ccccc1[C@H](C)[C@H](C)OC(=O)[C@H](C)NC(=O)c1nccc(OC)c1O [Example 170] | – | – | > 80 | > 80 | < 80 | < 80
12 | COc1ccnc(C(=S)N[C@@H](C)C(=O)O[C@@H](C)[C@@H](C)c2ccc(F)cc2C(F)(F)F)c1O [Example 268] | – | – | > 80 | < 80 | < 80 | < 80
13 | COc1ccnc(C(=O)N[C@@H](C)C(=O)O[C@H](C)[C@H](C)c2c(C)cc(F)cc2C)c1O [Example 169] | – | – | > 80 | > 80 | > 80 | > 80
14 | COc1ccnc(C(=O)N[C@@H](C)C(=O)O[C@H](C)[C@H](C)c2ccc(C)cc2C)c1O [Example 117] | – | – | < 80 | < 80 | < 80 | < 80
15 | COc1ccnc(C(=O)N[C@H](C)C(=O)O[C@@H](C)[C@@H](C)c2ccc(F)cc2C)c1O [Example 148] | – | – | > 80 | < 80 | > 80 | < 80
16 | COc1ccnc(C(=O)NCC(=O)O[C@H](C)[C@@H](C)c2ccc(F)cc2C)c1O [Example 124] | – | – | < 80 | < 0 | < 0 | < 80
17 | COc1ccnc(C(=O)N[C@H](C)C(=O)O[C@@H](C)[C@H](C)c2ccccc2C)c1O [Example 150] | – | – | < 0 | < 80 | < 80 | < 80
18 | COc1ccc([C@H](C)[C@H](C)OC(=O)CNC(=O)c2nccc(OC)c2O)c(C)c1 [Example 122] | – | – | > 80 | > 80 | < 80 | < 80
19 | COc1ccc([C@@H](C)[C@@H](C)OC(=O)CNC(=O)c2nccc(OC)c2O)c(C)c1 [Example 127] | – | – | < 80 | < 80 | < 0 | < 80
20 | COc1ccnc(C(=O)N[C@H](C(=O)O[C@H](C)[C@@H](C)c2ccccc2C)C(C)C)c1O [Example 145] | – | – | < 80 | < 80 | < 80 | < 80
21 | COc1ccnc(C(=O)N[C@H](C)C(=O)O[C@H](C)[C@H](C)c2ccc(F)cc2C)c1O [Example 153] | – | – | < 80 | < 80 | < 80 | < 80
22 | COc1ccnc(C(=O)N[C@@H](C)C(=O)OC(C)C(C)c2c(C)cc(F)cc2C)c1O (stereo partly drawn) [Example 165] | – | – | > 80 | > 80 | > 80 | > 80
23 | COc1ccnc(C(=O)NCC(=O)O[C@H](C)[C@H](C)c2ccc(F)cc2)c1O [Example 126] | – | – | > 80 | < 80 | < 0 | < 80
24 | COc1ccnc(C(=O)N[C@@H](C)C(=O)O[C@@H](C)[C@@H](C)c2ccc(C)s2)c1O [Example 172] | – | – | < 80 | > 80 | < 80 | < 80
25 | COc1ccc([C@@H](C)[C@@H](C)OC(=O)[C@H](C)NC(=O)c2nccc(OC)c2O)c(C)c1 [Example 137] | – | – | > 80 | < 80 | < 80 | < 80
26 | COc1ccnc(C(=O)N[C@@H](C)C(=O)O[C@@H](C)[C@H](C)c2ccccc2C)c1O [Example 130] | – | – | > 80 | > 80 | < 80 | < 80
27 | COc1ccnc(C(=O)N[C@@H](C)C(=O)O[C@@H](C)[C@@H](C)c2ccc(C)cc2C)c1O [Example 116] | – | – | > 80 | > 80 | < 80 | > 80
28 | COc1ccnc(C(=O)NCC(=O)O[C@@H](C)[C@@H](C)c2ccc(F)cc2C)c1O [Example 118] | – | – | > 80 | > 80 | < 0 | < 80
29 | COc1ccnc(C(=O)N[C@@H](C)C(=O)O[C@H](C)[C@H](C)c2ccc(F)cc2C)c1O [Example 133] | – | – | > 80 | < 80 | < 80 | < 80
